Results: patent US5182283A, “Heterocyclic compounds their preparation and use” (Novo Nordisk A/S, priority 1990, dated 1993)
Structures can show the parent of a compound that is named as a salt. Where two headings read alike, the source gives them in different places. Values belong to the compound of their own block, whether it stands above or below them.

How the values were obtained:
[1] = biological target: muscarinic acetylcholine receptors; test: inhibition of specific binding of ^3 H-Oxotremorine-M (^3 H-Oxo) in rat cortex; parameters: species or system male Wistar rats; settings: read-out: Inhibition in vitro OXO BINDING (IC50, concentration which inhibits the specific binding of ^3 H-Oxo by 50%), ^3 H-Oxotremorine 1.0 nM, 30 min at 25° C., pH 7.4, 25-75% inhibition needed for calculation
Description: The pharmacological properties of the compounds of the invention can be illustrated by determining their capability to inhibit the specific binding of ^3 H-Oxotremorine-M (^3 H-Oxo).
^3 H-Oxo labels muscarinic receptor in the CNS (with a preference for agonist domaines of the receptors). Three different sites are labelled by ^3 H-Oxo. […] Using the present experimental conditions only the high and medium affinity sites are determined.
The inhibitory effects of compounds on ^3 H-Oxo binding reflects the affinity for muscarinic acetylcholine receptors.
All preparations are performed at 0°-4° C. unless otherwise indicated. Fresh cortex (0.1-1 g) from male Wistar rats (150-250 g) is homogenized for 5-10 s in 10 ml 20 mM Hepes pH: 7.4, with an Ultra-Turrax homogenizer. The homogenizer is rinsed with 10 ml of buffer and the combined suspension centrifuged for 15 min at 40,000×g. The pellet is washed three times with buffer. In each step the pellet is homogenized as before in 2×10 ml of buffer and centrifuged for 10 min at 40,000×g.
The final pellet is homogenized in 20 mM Hepes pH: 7.4 (100 ml per g of original tissue) and used for binding assay. Aliquots of 0.5 ml is added 25 μl of test solution and 25 μl of ^3 H-Oxotremorine (1.0 nM, final concentration) mixed and incubated for 30 min at 25° C. […] After incubation samples are added 5 ml of ice-cold buffer and poured directly onto Whatman GF/C glass fiber filters under suction and immediately washed 2 times with 5 ml of ice-cold buffer. The amount of radioactivity on the filters are determined by conventional liquid scintillation counting. Specific binding is total binding minus non specific binding.
Test substances are dissolved in 10 ml water (if necessary heated on a steambath for less than 5 minutes) at a concentration of 2.2 mg/ml. 25-75% inhibition of specific binding must be obtained before calculation of IC50.
[formula] where Co is specific binding in control assays and Cx is the specific binding in the test assay. (The calculations assume normal mass-action kinetics).

[2] = in vivo; cited from earlier work
[3] = in vivo; cited from earlier work; remark: listed apart in the source
[4] = test system: central and peripheral muscarinic effects; settings: in vivo; cited from earlier work
[5] = biological target: muscarinic receptor in the CNS; settings: read-out: affinity of ^3 H-Oxo site, cited from earlier work

IC50 [1]: 46 nM
Compound: CCCCCCOc1nccnc1[C@H]1CN2CC[C@@H]1C2 (relative stereo) [Compound 27, Endo-3-(3-hexyloxypyrazinyl)-1-azabicyclo[2.2.2]heptane hydrochlorid hemihydrate]

IC50 [1]: 5.6 nM
Compound: CCCCCCOc1nccnc1[C@@H]1CN2CC[C@@H]1C2 (relative stereo) [Compound 28, Exo-3-(3-hexyloxypyrazinyl)-1-azabicyclo[2.2.1]heptane hydrochloride]

Compound: COC(=O)C1=CCCN(C)C1 [Arecoline, methyl 1-methyl-1,2,5,6-tetrahydropyridine-3-carboxylate]
biological half life [2]: very short
toxicity [3]: rather toxic
separation between central and peripheral muscarinic effects [4]: small separation

Compound: FC(F)(F)C(F)(F)C(F)(F)C(F)(F)CCOc1nccnc1C1=CN2CCC1CC2 [Compound 24, 3-(3-(3,3,4,4,5,5,6,6,6)nonafluorohexyloxypyrazinyl)-1-azabicyclo[2.2.2]oct-2-ene hydrochloride]
IC50 [1]: 490 nM

Compound: CCCCCOc1nccnc1C1CN2CCC1CC2 (stereo not shown) [Compound 25, 3-(3-Pentyloxypyrazinl)-1-azabicyclo[2.2.2]octane hydrochloride]
IC50 [1]: 6 nM

Compound: C[N+](C)(C)CC#CCN1CCCC1=O [^3 H-Oxo]
Kd ([5]; first of three sites (high affinity)): 1.8 nM
Kd ([5]; second of three sites (medium affinity)): 20 nM
Kd ([5]; third of three sites, not determined under the present conditions): 3000 nM
